How the values were obtained:
Assay type in all cases: functional
[1] = tested on: THP-1; assay: Inhibition of LPS-stimulated TNFalpha secretion in human THP1 cells at 10 uM after 24 hrs by ELISA; conditions: THP-1, 24 h
[2] = tested on: THP-1; assay: Inhibition of LPS-stimulated TNFalpha secretion in human THP1 cells at 50 uM after 24 hrs by ELISA; conditions: THP-1, 24 h
[3] = tested on: PBMC; assay: Inhibition of LPS-stimulated TNFalpha secretion in human PBMC cells at 50 uM after 24 hrs by ELISA
[4] = tested on: PBMC; assay: Inhibition of LPS-stimulated TNFalpha secretion in human PBMC cells at 10 uM after 24 hrs by ELISA

CN(C)c1c(-c2ccccc2)c2ccccc2[nH]c1=O
inhibition at 10 µM [1]: 0% | inhibition at 50 µM [2]: 83%

Nc1c(-c2ccccc2)c2ccccc2[nH]c1=O
inhibition at 50 µM [3]: 79% | inhibition at 10 µM [4]: 29%

CN(C)C(=O)N1CCN(c2c(-c3ccccc3)c3ccccc3[nH]c2=O)CC1
inhibition at 10 µM [1]: 21% | inhibition at 50 µM [2]: 43%

CSc1c(-c2ccccc2)c2ccccc2[nH]c1=O
inhibition at 10 µM [1]: 49% | inhibition at 50 µM [3]: 95% | inhibition at 10 µM [4]: 78% | inhibition at 50 µM [2]: 93%

CN(CCO)c1c(-c2ccccc2)c2ccccc2[nH]c1=O
inhibition at 10 µM [1]: 0% | inhibition at 50 µM [2]: 21%

COc1c(-c2ccccc2)c2ccccc2[nH]c1=O
inhibition at 10 µM [1]: 7% | inhibition at 50 µM [3]: 67% | inhibition at 10 µM [4]: 24% | inhibition at 50 µM [2]: 10%

COCCN(CCOC)c1c(-c2ccccc2)c2ccccc2[nH]c1=O
inhibition at 10 µM [1]: 0% | inhibition at 50 µM [2]: 59%

CSc1c(-c2ccccc2)c2cc([N+](=O)[O-])ccc2[nH]c1=O
inhibition at 50 µM [3]: 94% | inhibition at 10 µM [4]: 86%

CNc1c(-c2ccccc2)c2ccccc2[nH]c1=O
inhibition at 10 µM [1]: 50% | inhibition at 50 µM [3]: 67% | inhibition at 10 µM [4]: 36% | inhibition at 50 µM [2]: 97%

CCc1c(-c2ccccc2)c2ccccc2[nH]c1=O
inhibition at 10 µM [1]: 3% | inhibition at 50 µM [3]: 50% | inhibition at 10 µM [4]: 32% | inhibition at 50 µM [2]: 80%
